Test results reported in patent US20100130736A1, “METHODS OF CREATING AN INDEX” (priority 2008, published 2010).
Read-outs that look alike come from different tables or passages of the source. Where no end group is shown, it is not given here.

Assays:
Assay type in all cases: cell-based, human
quiescent A431 cells = assay: Epic label-free DMR two-step assay, antagonist mode: modulation of marker-induced DMR signals in quiescent A431 cells
Procedure: (§1) Cells were typically grown using ˜1 to 2×10^4 cells per well at passage 3 to 15 suspended in 50 μl of the corresponding culture medium in the biosensor microplate, and were cultured at 37° C. under air/5% CO2 for ˜1 day. Except for A431, which was subject to ˜20 hr starvation through continuous culture in the serum-free DMEM, the other cell types were directly assayed without starvation. The confluency for all cells at the time of assays was ˜95% to 100%.
(§2) Epic® wavelength interrogation system (Corning Inc., Corning, N.Y.) was used for whole cell sensing. This system consists of a temperature-control unit, an optical detection unit, and an on-board liquid handling unit with robotics. The detection unit is centered on integrated fiber optics, and enables kinetic measures of cellular responses with a time interval of ±15 sec.
(§3) For biosensor cellular assays, molecule solutions were made by diluting the stored concentrated solutions with the HBSS (1× Hanks balanced salt solution, plus 20 mM Hepes, pH 7.1), and transferred into a 384 well polypropylene molecule storage plate to prepare a molecule source plate. Both molecule and marker source plates were made separately when a two-step assay was performed. In parallel, the cells were washed twice with the HBSS and maintained in 30 μl of the HBSS to prepare a cell assay plate. Both the cell assay plate and the molecule and marker source plate(s) were then incubated in the hotel of the reader system. After ˜1 hr of incubation the baseline wavelengths of all biosensors in the cell assay microplate were recorded and normalized to zero. Afterwards, a 2 to 10 minute continuous recording was carried out to establish a baseline, and to ensure that the cells reached a steady state. Cellular responses were then triggered by pipetting 10 μl of the marker solutions into the cell assay plate using the on-board liquid handler.
To study the influence of molecules on a marker-induced response, a second stimulation with the marker at a fixed dose (typically at EC80 or EC100) was applied. The resonant wavelengths of all biosensors in the microplate were normalized again to establish a second baseline, right before the second stimulation. The two stimulations were usually separated by ˜1 hr. All studies were carried out at a controlled temperature (28° C.). At least two independent sets of experiments, each with at least three replicates, were performed. […]
A first panel of markers was contacted with quiescent A431 cells at concentrations close to each of the marker's EC80 or EC100, and DMR measurements were obtained with and EPIC® system. This panel of markers was selected from a library of markers identified in A431 cells using Epic® cellular assays. This panel included epidermal growth factor (EGF), epinephrine, nicotinic acid, and histamine. Each of these markers leads to a wide array of cell signaling. […] Each DMR signal represents an averaged response of 4 replicates.

A549 cells [1] = assay: Epic DMR agonist mode (primary profile, target panning) in A549 cells; settings: for ligand-induced DMR signal (second ligand panel): FIG. 8: 40 μM pinacidil, 250 μg/ml poly (I:C), 8 μM PMA, 16 μM forskolin
Source text: as §2, §3
First, a panel of ligands targeting GPCRs, each at 10 μM concentration, was chosen, and examined their actions on the A549 cells using DMR measurements with the Epic® system. The ligand panel included the four P2Y agonists ADP, […], UTP and UDP, the adenosine receptor agonist adenosine, the calcium sensing receptor agonist spermine, the histamine receptor agonist histamine, the adrenergic receptor agonist epinephrine, the free fatty acid receptor agonist elaidic acid, the lipoxin receptor agonist lipoxin A4, the bradykinin receptor agonist bradykinin, the adrenodullin receptor agonist adrenodullin, the PAR1 agonist SFLLR-amide, the angiotensin receptor agonist angiotensin, the neuropeptide Y receptor agonist neuropeptide Y, and the PAR2 agonist SLIGKV-amide.
Next, a second ligand panel was chosen, and examined their actions on the A549 cells using DMR measures with the Epic® system. The panel included the protein kinase C activator PMA, the endogenous KATP ion channel activator pinacidil, the adenylyl cyclase activator forskolin, and endogenous Toll-like receptor (TLR) activator poly(I:C).
A DMR index was generated for four ligand molecules. Quiescent A431 and proliferating A549 cells were separately exposed to the ligand molecules for about 1 hr to generate their primary profiles, followed by stimulation with each marker at a fixed concentration (as mentioned in FIGS. 7 and 8) for another 1 hr or so to generate secondary profiles of the molecule against the panels of markers in both types of cells. Next, one or more specific DMR parameters were chosen as a readout for plotting the DMR index of the molecule. For the pinacidil DMR response in A549, the amplitude of the N-DMR (i.e., the amplitude 30 min after stimulation) was chosen. For the poly(I:C) DMR response in A549, the amplitude of the late DMR (i.e., the amplitude 50 min after stimulation) was chosen. For the PMA response in A549, the late DMR amplitude (i.e., the amplitude 50 min after stimulation) was chosen. For the SLIGKV-amide DMR response in A549, the P-DMR amplitude (i.e., the amplitude 20 min after stimulation) was chosen. For the forskolin response in A549 cells, the P-DMR amplitude (i.e., the amplitude 50 min after stimulation) was chosen. For the histamine response in A549, both the early DMR amplitude (i.e., amplitude 10 min after stimulation) and the late response (i.e., the amplitude 30 min after stimulation) were chosen. For the epinephrine response in A431, the P-DMR amplitude (i.e., the amplitude 50 min after stimulation) was chosen.

A549 cells [2] = assay: Epic label-free DMR two-step assay, antagonist mode: modulation of marker-induced DMR signals in A549 cells
Procedure: as §1, §2, §3
To study the influence of molecules on a marker-induced response, a second stimulation with the marker at a fixed dose (typically at EC80 or EC100) was applied. The resonant wavelengths of all biosensors in the microplate were normalized again to establish a second baseline, right before the second stimulation. The two stimulations were usually separated by ˜1 hr. All studies were carried out at a controlled temperature (28° C.). At least two independent sets of experiments, each with at least three replicates, were performed.
A second panel of markers was contacted with A549 cells at concentrations close to each of the marker's EC80 or EC100, and DMR measurements were obtained with and EPIC® system. This panel included poly(I:C), SLIGKV-amide, pinacidil, PMA, histamine, and forskolin. Each of these markers also leads to a wide array of cell signaling. Using Epic® cellular assays in conjunction with chemical biology and cell biology approach similar to the EGFR DMR mentioned above, we have determined the pathway(s) and network interaction(s) that is accounted for each marker-induced DMR signal in A549 cells. The main observations are summarized below. Poly(I:C) is an agonist for endogenous Toll-like receptor(s) in A549, whose activation leads to IKK pathway and AKT pathway. SLIGKV-amide is an agonist for endogenous protease activated receptor subtype 2 (PAR2) in A549, whose activation leads to Gq-, Gi- and G12/13-mediated signaling. Pinacidil is an opener for endogenous ATP-sensitive potassium (KATP) ion channel in A549, whose activation leads to Rho- and JAK-mediated signaling. PMA is an activator for protein kinase C (PKC), whose activation leads to PKC pathway and degranulation. Histamine is a natural agonist for endogenous histamine receptors (dominantly H1R, and possibly H3R), whose activation leads to dual signaling, possibly through Gq and Gi mediated signaling in A549. Forskolin is an activator for adenylyl cyclases, whose activation leads to cAMP-PKA pathway in A549. […] Each DMR signal represents an averaged response of 4 replicates. […]

[3] = quiescent A431, 32 nM EGF, ligand 10 μM, about 1 hr pretreatment
[4] = ~1 hr pretreatment with the molecule
[5] = A549, each ligand at 10 μM, FIGS. 3A and 3B

CC(=O)c1c(O)c(C)c(O)c(Cc2c(O)c3c(c(C(=O)/C=C/c4ccccc4)c2O)OC(C)(C)C=C3)c1O [rottlerin]
effect on the N-DMR of the EGF DMR signal (in words) (quiescent A431 cells; [3]): part of the early N-DMR event | effect on the early P-DMR event of the EGF DMR signal (in words) (quiescent A431 cells; [3]): specifically caused the truncation

CCCCCCCCCCCCCC(=O)O[C@@H]1[C@@H](C)[C@@]2(O)[C@@H](C=C(CO)C[C@]3(O)C(=O)C(C)=C[C@@H]23)[C@@H]2C(C)(C)[C@]12OC(C)=O [PMA, Phorbol 12-myristate 13-acetate]
ligand-induced DMR signal (second ligand panel) (A549 cells [1]; A549): robust DMR signals

O=S(=O)(c1cccc2cnccc12)N1CCCNCC1 [HA1077]
primary profile of the molecule (DMR signal triggered) (A549 cells [1]; A549, 10 μM, about 1 hr): N-DMR signal | modulation of the PMA-induced DMR response (A549 cells [2]; molecule 10 μM, 8 μM PMA, late DMR amplitude 50 min after stimulation): +36% | modulation of the SLIGKV-amide-induced DMR response (A549 cells [2]; molecule 10 μM, 8 μM SLIGKV-amide, P-DMR amplitude 20 min after stimulation): +22% | modulation of the histamine-induced DMR response (early P-DMR) (A549 cells [2]; molecule 10 μM, 10 μM histamine, amplitude 10 min after stimulation): +26% | modulation of the histamine-induced DMR response (late P-DMR) (A549 cells [2]; molecule 10 μM, 10 μM histamine, amplitude 30 min after stimulation): +55% | modulation of the forskolin-induced DMR response (A549 cells [2]; molecule 10 μM, 16 μM forskolin, P-DMR amplitude 50 min after stimulation): +18% | modulation of the poly(I:C)-induced DMR response (A549 cells [2]; molecule 10 μM, 250 μg/ml poly(I:C), late DMR amplitude 50 min after stimulation): +18% | effect on the PMA response (in words) (A549 cells [2]; [4]): significantly potentiated | effect on the histamine response (in words) (A549 cells [2]; [4]): significantly potentiated | effect on the pinacidil response (in words) (A549 cells [2]; [4]): almost completely attenuated

COc1cc2ncnc(Nc3cccc(Cl)c3)c2cc1OC [AG1478]
effect on the EGF response / DMR signal induced by EGF (in words) (quiescent A431 cells; [3]): almost completely blocked

CC(N/C(=N\C#N)Nc1ccncc1)C(C)(C)C (stereo not shown) [pinacidil]
ligand-induced DMR signal (second ligand panel) (A549 cells [1]; A549): robust DMR signals

NCCc1c[nH]cn1 [histamine]
ligand-induced DMR signal (GPCR ligand panel) (A549 cells [1]; [5]): robust DMR signals

O=c1ccn([C@@H]2O[C@H](COP(=O)(O)OP(=O)(O)OP(=O)(O)O)[C@@H](O)[C@H]2O)c(=O)[nH]1 [UTP]
ligand-induced DMR signal (GPCR ligand panel) (A549 cells [1]; [5]): robust DMR signals

Nc1ncnc2c1ncn2[C@@H]1O[C@H](COP(=O)(O)OP(=O)(O)OP(=O)(O)O)[C@@H](O)[C@H]1O [AT]
ligand-induced DMR signal (GPCR ligand panel) (A549 cells [1]; [5]): robust DMR signals

Nc1ncnc2c1ncn2[C@@H]1O[C@H](CO)[C@@H](O)[C@H]1O [adenosine]
ligand-induced DMR signal (GPCR ligand panel) (A549 cells [1]; [5]): robust DMR signals

CNC[C@H](O)c1ccc(O)c(O)c1 [epinephrine]
ligand-induced DMR signal (GPCR ligand panel) (A549 cells [1]): robust DMR signals

O=c1ccn([C@@H]2O[C@H](COP(=O)(O)OP(=O)(O)O)[C@@H](O)[C@H]2O)c(=O)[nH]1 [UDP]
ligand-induced DMR signal (GPCR ligand panel) (A549 cells [1]; [5]): robust DMR signals

SLIGKV-NH2
ligand-induced DMR signal (GPCR ligand panel) (A549 cells [1]; [5]): robust DMR signals

CCCCC[C@H](O)/C=C/C=C\C=C\C=C\[C@@H](O)[C@@H](O)CCCC(=O)O [lipoxin A4]
ligand-induced DMR signal (GPCR ligand panel) (A549 cells [1]; [5]): robust DMR signals

N#CC(=C(/N)Sc1ccccc1N)/C(C#N)=C(\N)Sc1ccccc1N [U0126]
effect on the N-DMR of the EGF DMR signal (in words) (quiescent A431 cells): significantly and selectively attenuated | effect on the RP-DMR of the EGF DMR signal (in words) (quiescent A431 cells): significantly and selectively attenuated

CCCCCCCC/C=C/CCCCCCCC(=O)O [elaidic acid]
ligand-induced DMR signal (GPCR ligand panel) (A549 cells [1]; [5]): robust DMR signals

Nc1ncnc2c1ncn2[C@@H]1O[C@H](COP(=O)(O)OP(=O)(O)O)[C@@H](O)[C@H]1O [ADP]
ligand-induced DMR signal (GPCR ligand panel) (A549 cells [1]; [5]): robust DMR signals

SFLLR-amide
ligand-induced DMR signal (GPCR ligand panel) (A549 cells [1]; [5]): robust DMR signals

angiotensin
ligand-induced DMR signal (GPCR ligand panel) (A549 cells [1]; [5]): robust DMR signals

NCCCNCCCCNCCCN [spermine]
ligand-induced DMR signal (GPCR ligand panel) (A549 cells [1]; [5]): robust DMR signals

C#Cc1cccc(Nc2ncnc3cc(OC)c(OC)cc23)c1 [BML-265]
effect on the EGF response / DMR signal induced by EGF (in words) (quiescent A431 cells; [3]): almost completely blocked

poly(I:C)
ligand-induced DMR signal (second ligand panel) (A549 cells [1]; A549): robust DMR signals

neuropeptide Y: neuropeptide Y receptor agonist
ligand-induced DMR signal (GPCR ligand panel) (A549 cells [1]; [5]): robust DMR signals

adrenodullin: adrenodullin receptor agonist (YRQSMNNFQGLRSFGCRFGTCTVQKLAHQIYQFTDKDKDNVAPRSKISPQGY; ends and bridges not checked; cysteine pairing not given here; UniProt P35318 95-146, looked up)
ligand-induced DMR signal (GPCR ligand panel) (A549 cells [1]; [5]): robust DMR signals
